Earlier results in patent US20260183709A1, “GAS PURIFICATION METHOD AND GAS PURIFIER” (priority 2022, published 2026).
Like-named read-outs stand apart in the source and are kept apart here.

How the values were obtained:
pseudomonas aeruginosa = settings: ozone concentration 0.08-0.6 ppm; acting time 30 minutes
poliovirus = settings: in water; ozone concentration 0.13 ppm; acting time 3 minutes
fusarium oxysporum = settings: ozone concentration 15.5 ppm; acting time 20 minutes; killing rate cell shared with r37
[1] = test system: common bacteria such as Escherichia coli, streptococcus, Pseudomonas aeruginosa, Staphylococcus aureus, and toxic bacteria; settings: in 15 minutes in the ozone environment
pseudomonas fluorescens = settings: phosphate buffer solution; ozone introduction; acting time 15 seconds
HBsAg = settings: in the air; ozone concentration 0.3 ppm; acting time 30 minutes
Vibrio cholerae = settings: phosphate buffer solution; ozone introduction; acting time 15 seconds
escherichia coli [2] = settings: 10° C.; ozone concentration 0.3 ppm; acting time 1 minute
escherichia coli phage = settings: ozone concentration 0.09-0.8 ppm; acting time 3 minutes
simian rotavirus = settings: ozone concentration 0.25 ppm
[3] = test system: human immunodeficiency virus (HIV); settings: in serum; ozone concentration 4 ppm
aspergillus versicolor = settings: in the air; ozone concentration 9.6 ppm; acting time 100 minutes
human rotavirus = settings: ozone concentration 0.25 ppm
penicillium nigricans = settings: ozone concentration 12.5 ppm; acting time 35 minutes; killing rate cell shared with r37
[4] = test system: bacillus subtilis variant; settings: in water; ozone concentration 4.6 mg/L; acting time 3 minutes
escherichia coli [5] = settings: in the 25° C. air; ozone concentration 0.05 ppm; acting time 30 minutes
aspergillus niger = settings: ozone concentration 1.5 ppm; acting time 1 minute; 'in water' printed on the line above
Influenza A virus = settings: ozone concentration 0.5 ppm; conditions and time not printed on the line (line above: in the air, 30 minutes)
staphylococcus aureus = settings: in the air; ozone concentration 9 ppm; acting time 60 minutes
F's dysentery bacillus = settings: phosphate buffer solution; ozone introduction; acting time 15 seconds
cladosporium herbarum = settings: ozone concentration 23 ppm; acting time 30 minutes; killing rate cell shared with r37
mucor = settings: acting time 30 minutes; killing rate cell shared with penicillium line; no ozone concentration printed
Salmonella typhimurium = settings: phosphate buffer solution; ozone introduction; acting time 15 seconds
staphylococcus albus = settings: ozone concentration 10 ppm; acting time 3 minutes
penicillium = settings: in the air; acting time 30 minutes; no ozone concentration printed
[6] = test system: bacillus subtilis variant; settings: in the air; ozone concentration 2.5 mg/L; acting time 1 minute
penicillium citrinum = settings: ozone concentration 15.4 ppm; acting time 30 minutes; killing rate cell shared with r37
HAsAg = settings: in water; ozone concentration 13.6 ppm; acting time 30 minutes (cells shared with line above)

O=[O+][O-] [Ozone, ozone]
Killing rate (pseudomonas aeruginosa): 99.9% | Killing rate (poliovirus): 100% | Killing rate (fusarium oxysporum): 100% | sterilization rate [1]: above 99% | Killing rate (pseudomonas fluorescens): 100% | Killing rate (HBsAg): 75% | Killing rate (Vibrio cholerae): 100% | Killing rate (escherichia coli [2]): 100% | Killing rate (drop by log values) (escherichia coli phage): drop by 7 log log values | Killing rate (simian rotavirus): 100% | Killing rate (drop by log values in titer) [3]: drop by 6 log values in titer | sterilization rate faster than chlorine (bacteria; compared with chlorine): 600-3000 times | bactericidal ability higher than the ultraviolet rays (bacteria; compared with ultraviolet rays): 20% | sterilization rate faster in the water than chlorine (bacteria; in the water, compared with chlorine): 600 times | Killing rate (aspergillus versicolor): 100% | Killing rate (human rotavirus): 100% | Killing rate (penicillium nigricans): 100% | Killing rate [4]: 100% | Killing rate (escherichia coli [5]): 100% | Killing rate (aspergillus niger): 100% | Killing rate (Influenza A virus): 100% | Killing rate (staphylococcus aureus): 99.97% | Killing rate (F's dysentery bacillus): 100% | Killing rate (cladosporium herbarum): 100% | Killing rate (mucor): 93.8% | Killing rate (Salmonella typhimurium): 100% | Killing rate (staphylococcus albus): 99.99% | Killing rate (penicillium): 93.8% | Killing rate [6]: 100% | Killing rate (penicillium citrinum): 100% | Killing rate (HAsAg): 100%
